Data on 26 compounds can be found in ChEMBL document CHEMBL4017512 (J Med Chem, 2017).

One experiment has as its system HCT-116. In words: Antiproliferative activity against human HCT116 cells after 72 hrs by phosphatase assay. The settings on record: HCT-116, 72 h. It counts as functional, cell-based.
For the next experiment, the system named is L1210. In words: Antiproliferative activity against mouse L1210 cells after 72 hrs by phosphatase assay. It counts as functional, cell-based. Conditions: L1210, 72 h.
The nature of experiment [1]: Cytotoxicity against human HCT116/VM46 cells assessed as reduction in cell viability after 72 hrs by phosphatase assay. It counts as cell-based. Conditions: HCT-116/VM46, 72 h.

In general, IC50 refers to the midpoint of a concentration-inhibition curve. `CC[C@]1(NC(=O)c2cccc(OC(F)(F)F)c2)C[C@H]2CN(CCc3c([nH]c4ccccc34)[C@@](C(=O)OC)(c3cc4c(cc3OC)N(C)[C@H]3[C@@](O)(C(=O)OC)[C@H](OC(C)=O)[C@]5(CC)C=CCN6CC[C@]43[C@@H]65)C2)C1`: the results for the IC50 (in the experiment on HCT-116; with L1210; in experiment [1]) were 5.9 nM, 4.8 nM and 50 nM, respectively.
The like results for `CC[C@]1(NC(=O)c2ccc3ncccc3c2)C[C@H]2CN(CCc3c([nH]c4ccccc34)[C@@](C(=O)OC)(c3cc4c(cc3OC)N(C)[C@H]3[C@@](O)(C(=O)OC)[C@H](OC(C)=O)[C@]5(CC)C=CCN6CC[C@]43[C@@H]65)C2)C1` were, in that order, 0.6 nM, 0.6 nM and 4.9 nM.
The like results for `CC[C@]1(NS(=O)(=O)c2ccc(C)cc2)C[C@H]2CN(CCc3c([nH]c4ccccc34)[C@@](C(=O)OC)(c3cc4c(cc3OC)N(C)[C@H]3[C@@](O)(C(=O)OC)[C@H](OC(C)=O)[C@]5(CC)C=CCN6CC[C@]43[C@@H]65)C2)C1` were, in that order, 30 nM, 40 nM and 330 nM.
For `CC[C@]1(NC(=O)c2ccc(C(C)C)cc2)C[C@H]2CN(CCc3c([nH]c4ccccc34)[C@@](C(=O)OC)(c3cc4c(cc3OC)N(C)[C@H]3[C@@](O)(C(=O)OC)[C@H](OC(C)=O)[C@]5(CC)C=CCN6CC[C@]43[C@@H]65)C2)C1`, the IC50 in the experiment on HCT-116 is 6.4 nM; in the experiment with L1210, 5.4 nM; in experiment [1], 13 nM.
The like results for `CC[C@]1(NC(=O)c2ccc(OC)c(Cl)c2)C[C@H]2CN(CCc3c([nH]c4ccccc34)[C@@](C(=O)OC)(c3cc4c(cc3OC)N(C)[C@H]3[C@@](O)(C(=O)OC)[C@H](OC(C)=O)[C@]5(CC)C=CCN6CC[C@]43[C@@H]65)C2)C1` were, in that order, 5.1 nM, 3.7 nM and 8.9 nM.
The matching figures for `CC[C@]1(NC(=O)c2cscn2)C[C@H]2CN(CCc3c([nH]c4ccccc34)[C@@](C(=O)OC)(c3cc4c(cc3OC)N(C)[C@H]3[C@@](O)(C(=O)OC)[C@H](OC(C)=O)[C@]5(CC)C=CCN6CC[C@]43[C@@H]65)C2)C1`: 6.3 nM, 5.6 nM and 80 nM.
Turning to `CC[C@]1(NC(=O)c2cnccn2)C[C@H]2CN(CCc3c([nH]c4ccccc34)[C@@](C(=O)OC)(c3cc4c(cc3OC)N(C)[C@H]3[C@@](O)(C(=O)OC)[C@H](OC(C)=O)[C@]5(CC)C=CCN6CC[C@]43[C@@H]65)C2)C1`, the IC50 came to 20 nM with HCT-116, 40 nM with L1210 and 550 nM in experiment [1].
The matching figures for `CC[C@]1(NC(=O)c2ccccc2Cl)C[C@H]2CN(CCc3c([nH]c4ccccc34)[C@@](C(=O)OC)(c3cc4c(cc3OC)N(C)[C@H]3[C@@](O)(C(=O)OC)[C@H](OC(C)=O)[C@]5(CC)C=CCN6CC[C@]43[C@@H]65)C2)C1`: 55 nM, 50 nM and 390 nM.
The like results for `CC[C@]1(NC(=O)c2ccc3cccc(OC)c3c2)C[C@H]2CN(CCc3c([nH]c4ccccc34)[C@@](C(=O)OC)(c3cc4c(cc3OC)N(C)[C@H]3[C@@](O)(C(=O)OC)[C@H](OC(C)=O)[C@]5(CC)C=CCN6CC[C@]43[C@@H]65)C2)C1` were, in that order, 13 nM, 10 nM and 70 nM.
The matching figures for `CC[C@]1(NC(=O)/C=C/c2ccoc2)C[C@H]2CN(CCc3c([nH]c4ccccc34)[C@@](C(=O)OC)(c3cc4c(cc3OC)N(C)[C@H]3[C@@](O)(C(=O)OC)[C@H](OC(C)=O)[C@]5(CC)C=CCN6CC[C@]43[C@@H]65)C2)C1`: 0.7 nM, 0.7 nM and 20 nM.
For the compound `CC[C@]1(NC(=O)c2ccc(C(F)(F)F)cc2)C[C@H]2CN(CCc3c([nH]c4ccccc34)[C@@](C(=O)OC)(c3cc4c(cc3OC)N(C)[C@H]3[C@@](O)(C(=O)OC)[C@H](OC(C)=O)[C@]5(CC)C=CCN6CC[C@]43[C@@H]65)C2)C1`, the IC50 with HCT-116 is 3.3 nM; with L1210, 4.3 nM; in experiment [1] it was 55 nM.
Turning to `CC[C@]1(NC(=O)c2cccc3ccccc23)C[C@H]2CN(CCc3c([nH]c4ccccc34)[C@@](C(=O)OC)(c3cc4c(cc3OC)N(C)[C@H]3[C@@](O)(C(=O)OC)[C@H](OC(C)=O)[C@]5(CC)C=CCN6CC[C@]43[C@@H]65)C2)C1`, the values for the 50% inhibitory concentration (IC50) (in the experiment with HCT-116; with L1210; in experiment [1]) were 65 nM, 60 nM and 220 nM, respectively.
The like results for `CC[C@]1(NC(=O)c2ccc(N)cc2)C[C@H]2CN(CCc3c([nH]c4ccccc34)[C@@](C(=O)OC)(c3cc4c(cc3OC)N(C)[C@H]3[C@@](O)(C(=O)OC)[C@H](OC(C)=O)[C@]5(CC)C=CCN6CC[C@]43[C@@H]65)C2)C1` were, in that order, 0.4 nM, 0.4 nM and 4.8 nM.
The like results for `CC[C@]1(NC(=O)c2cc(OC)c(OC)c(OC)c2)C[C@H]2CN(CCc3c([nH]c4ccccc34)[C@@](C(=O)OC)(c3cc4c(cc3OC)N(C)[C@H]3[C@@](O)(C(=O)OC)[C@H](OC(C)=O)[C@]5(CC)C=CCN6CC[C@]43[C@@H]65)C2)C1` were, in that order, 0.1 nM, 0.09 nM and 2.4 nM.
The like results for `CC[C@]1(NC(=O)c2ccc3c(c2)CCN3C(=O)OC(C)(C)C)C[C@H]2CN(CCc3c([nH]c4ccccc34)[C@@](C(=O)OC)(c3cc4c(cc3OC)N(C)[C@H]3[C@@](O)(C(=O)OC)[C@H](OC(C)=O)[C@]5(CC)C=CCN6CC[C@]43[C@@H]65)C2)C1` were, in that order, 15 nM, 35 nM and 90 nM.
Regarding `CC[C@]1(NC(=O)C(C)(C)C)C[C@H]2CN(CCc3c([nH]c4ccccc34)[C@@](C(=O)OC)(c3cc4c(cc3OC)N(C)[C@H]3[C@@](O)(C(=O)OC)[C@H](OC(C)=O)[C@]5(CC)C=CCN6CC[C@]43[C@@H]65)C2)C1`, the IC50 in the experiment on HCT-116 came to 3600 nM; in the experiment with L1210, 2800 nM; in experiment [1], 4100 nM.
The like results for `CC[C@]1(NC(=O)c2ccc3c(c2)CCCC3)C[C@H]2CN(CCc3c([nH]c4ccc(F)cc34)[C@@](C(=O)OC)(c3cc4c(cc3OC)N(C)[C@H]3[C@@](O)(C(=O)OC)[C@H](OC(C)=O)[C@]5(CC)C=CCN6CC[C@]43[C@@H]65)C2)C1` were, in that order, 6.2 nM, 5 nM and 19 nM.
The like results for `CC[C@]1(NC(=O)c2ccc3c(c2)ncn3C)C[C@H]2CN(CCc3c([nH]c4ccccc34)[C@@](C(=O)OC)(c3cc4c(cc3OC)N(C)[C@H]3[C@@](O)(C(=O)OC)[C@H](OC(C)=O)[C@]5(CC)C=CCN6CC[C@]43[C@@H]65)C2)C1` were, in that order, 0.6 nM, 0.7 nM and 8 nM.
The like results for `CC[C@]1(NC(=O)C(C)C)C[C@H]2CN(CCc3c([nH]c4ccccc34)[C@@](C(=O)OC)(c3cc4c(cc3OC)N(C)[C@H]3[C@@](O)(C(=O)OC)[C@H](OC(C)=O)[C@]5(CC)C=CCN6CC[C@]43[C@@H]65)C2)C1` were, in that order, 90 nM, 70 nM and 1400 nM.
Take `CC[C@]1(NC(=O)c2csc3ccccc23)C[C@H]2CN(CCc3c([nH]c4ccccc34)[C@@](C(=O)OC)(c3cc4c(cc3OC)N(C)[C@H]3[C@@](O)(C(=O)OC)[C@H](OC(C)=O)[C@]5(CC)C=CCN6CC[C@]43[C@@H]65)C2)C1`: the IC50 came out at 5.7 nM in the experiment with HCT-116, 5.2 nM with L1210 and 20 nM in experiment [1].
For `CC[C@]1(NC(=O)c2ccc3c(c2)C(C)(C)CCC3(C)C)C[C@H]2CN(CCc3c([nH]c4ccccc34)[C@@](C(=O)OC)(c3cc4c(cc3OC)N(C)[C@H]3[C@@](O)(C(=O)OC)[C@H](OC(C)=O)[C@]5(CC)C=CCN6CC[C@]43[C@@H]65)C2)C1`, the figures for the IC50 (with HCT-116; in the experiment on L1210; in experiment [1]) were 7.8 nM, 7.4 nM and 50 nM, respectively.
The matching figures for `CC[C@]1(NC(=O)C2CCN(C)CC2)C[C@H]2CN(CCc3c([nH]c4ccccc34)[C@@](C(=O)OC)(c3cc4c(cc3OC)N(C)[C@H]3[C@@](O)(C(=O)OC)[C@H](OC(C)=O)[C@]5(CC)C=CCN6CC[C@]43[C@@H]65)C2)C1`: 4400 nM, 5300 nM and 6600 nM.
`CC[C@]1(NS(=O)(=O)c2ccc(OC)cc2)C[C@H]2CN(CCc3c([nH]c4ccccc34)[C@@](C(=O)OC)(c3cc4c(cc3OC)N(C)[C@H]3[C@@](O)(C(=O)OC)[C@H](OC(C)=O)[C@]5(CC)C=CCN6CC[C@]43[C@@H]65)C2)C1`: the IC50 was found to be 30 nM in the experiment with HCT-116, 35 nM in the experiment on L1210 and 240 nM in experiment [1].
The matching figures for `CC[C@]1(NS(=O)(=O)c2cccc([N+](=O)[O-])c2)C[C@H]2CN(CCc3c([nH]c4ccccc34)[C@@](C(=O)OC)(c3cc4c(cc3OC)N(C)[C@H]3[C@@](O)(C(=O)OC)[C@H](OC(C)=O)[C@]5(CC)C=CCN6CC[C@]43[C@@H]65)C2)C1`: 490 nM, 450 nM and 430 nM.
The matching figures for `CC[C@]1(NC(=O)c2cc(C)c(OCc3ccccc3)c(C)c2)C[C@H]2CN(CCc3c([nH]c4ccccc34)[C@@](C(=O)OC)(c3cc4c(cc3OC)N(C)[C@H]3[C@@](O)(C(=O)OC)[C@H](OC(C)=O)[C@]5(CC)C=CCN6CC[C@]43[C@@H]65)C2)C1`: 30 nM, 30 nM and 80 nM.
The matching figures for `CC[C@]1(NC(=O)c2ccccc2C)C[C@H]2CN(CCc3c([nH]c4ccccc34)[C@@](C(=O)OC)(c3cc4c(cc3OC)N(C)[C@H]3[C@@](O)(C(=O)OC)[C@H](OC(C)=O)[C@]5(CC)C=CCN6CC[C@]43[C@@H]65)C2)C1`: 50 nM, 55 nM and 540 nM.
